Where two headings read alike, the source gives them in different places.
Experiments:
[1] = tested on: Mycosphaerella graminicola; Anamorph: Septoria tritici; assay: Leaf Blotch of Wheat (SEPTTR) disease control; format: in vivo; conditions: Zymoseptoria tritici; for pest or weed control at 100 ppm: rate 100 ppm; for pest or weed control at 121.5 g/ha: rate 121.5 g/H
Procedure, shortened: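 Wheat seedlings (Yuma, first leaf emerged) were sprayed to run-off with compound in acetone/water (1:9, 110 ppm Triton X-100) and inoculated with Septoria tritici spores before or after treatment. Disease severity (0–100%) was scored once untreated first leaves were fully symptomatic; control was calculated relative to untreated plants.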

[2] = tested on: Puccinia triticina; Synonym: Puccinia recondite f. Sp. Tritici; assay: Wheat Brown Rust (PUCCRT) disease control; format: in vivo; conditions: Puccinia triticina, topical; for pest or weed control at 100 ppm: rate 100 ppm; for pest or weed control at 121.5 g/ha: rate 121.5 g/H
Procedure, shortened: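 Brown rust on first-leaf Yuma wheat: spore inoculation before or after spray application (acetone/Triton X-100 solution, or EC with Trycol in track spray), overnight 100% RH at 22 °C, disease developed at 24 °C. Severity scored 0–100% and converted to percent control against untreated.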

[3] = 24 h, 1 Day Protectant, read-out: SEPTTR 1 DP disease control
[4] = 72 h, 3 Day Curative, read-out: SEPTTR 3 DC disease control
[5] = 24 h, 1 Day Protectant, read-out: PUCCRT 1 DP disease control
[6] = 72 h, 3 Day Curative, read-out: PUCCRT 3 DC disease control

Compound	pest or weed control at 100 ppm [1, 3] [%]	pest or weed control at 121.5 g/ha [1, 3] [%]	pest or weed control at 100 ppm [1, 4] [%]	pest or weed control at 121.5 g/ha [1, 4] [%]	melting point	pest or weed control at 100 ppm [2, 5] [%]	pest or weed control at 121.5 g/ha [2, 5] [%]	pest or weed control at 100 ppm [2, 6] [%]	pest or weed control at 121.5 g/ha [2, 6] [%]
CCOCC(=O)OCOc1c(OC)ccnc1C(=O)N[C@H]1CCC[C@H](Cc2ccc(C)cc2)[C@@H](OCC2CC2)[C@H](C)OC1=O [Compound F180]	80 to 100	80 to 100	80 to 100	80 to 100	50 to 55 °C	80 to 100	80 to 100	80 to 100	0 to 80
COc1ccnc(C(=O)N[C@H]2CCC[C@H](Cc3ccc(F)cc3F)[C@@H](OCCCc3ccccc3)[C@H](C)OC2=O)c1OCOC(C)=O [Compound F141]	80 to 100	80 to 100	80 to 100	0 to 80	40 to 45 °C	80 to 100	80 to 100	0 to 80	
COc1ccnc(C(=O)N[C@H]2CCC[C@H](Cc3ccc(C)cc3)[C@@H](OCC3CC3)[C@H](C)OC2=O)c1OCOC(C)=O [Compound F127]	80 to 100		80 to 100		55 to 60 °C	80 to 100		80 to 100	
COc1ccnc(C(=O)N[C@H]2CCC[C@H](Cc3ccc(C)cc3)[C@@H](Oc3ccccc3)[C@H](C)OC2=O)c1OCOC(C)=O [Compound F134]	80 to 100		80 to 100		71 to 75 °C	80 to 100		80 to 100	
COc1ccnc(C(=O)N[C@H]2CCC[C@H](Cc3ccc(C)cc3)[C@@H](OCC(C)C)[C@H](C)OC2=O)c1O [Compound F41]	80 to 100		80 to 100		129 to 131 °C	80 to 100		0 to 80	
COc1ccnc(C(=O)N[C@H]2CCC[C@H](Cc3ccc(F)cc3F)[C@@H](OCc3ccccc3)[C@H](C)OC2=O)c1O [Compound F52]	80 to 100		80 to 100		68 to 72 °C	80 to 100		80 to 100	
Cc1ccc(C[C@H]2CCC[C@H](N(C(=O)OC(C)(C)C)C(=O)OC(C)(C)C)C(=O)O[C@@H](C)[C@@H]2OCc2ccccc2)cc1 [Compound F230, tert-butyl N-[(3S,7R,8R,9S)-8-benzyloxy-9-methyl-2-oxo-7-(p-tolylmethyl)oxonan-3-yl]-N-tert-butoxycarbonyl-carbamate]					164 to 166 °C				
COCN(C(=O)OC(C)(C)C)[C@H]1CCC[C@H](CCC(C)C)[C@@H](OCCCC(F)(F)F)[C@H](C)OC1=O [Compound F203]					87 to 89 °C				
COc1ccnc(C(=O)N[C@H]2CCC[C@H](Cc3ccc(C)cc3)[C@@H](Oc3ccccc3)[C@H](C)OC2=O)c1OC(C)=O [Compound F79, 4-methoxy-2-(((3S,7R,8R,9S)-9-methyl-7-(4-methylbenzyl)-2-oxo-8-phenoxyoxonan-3-yl)carbamoyl)pyridin-3-yl acetate]	80 to 100		80 to 100		96 to 100 °C	80 to 100		80 to 100	
COc1ccnc(C(=O)N[C@H]2CCC[C@H](Cc3ccc(F)cc3F)[C@@H](OCC(C)C)[C@H](C)OC2=O)c1O [Compound F59]	80 to 100	80 to 100	80 to 100	0 to 80	69 to 72 °C	80 to 100	80 to 100	80 to 100	
C[C@@H]1OC(=O)[C@@H](NC(=O)OC(C)(C)C)CCC[C@H](C)[C@H]1Oc1ccccc1 [Compound F224]					144 to 145 °C				
Cc1ccc(C[C@H]2CCC[C@H](N(C(=O)OC(C)(C)C)C(=O)OC(C)(C)C)C(=O)O[C@@H](C)[C@@H]2OCC(C)C)cc1 [Compound F232]					110 to 114 °C				
COc1ccnc(C(=O)N[C@H]2CCC[C@H](Cc3ccc(F)cc3F)[C@@H](OC(=O)c3ccco3)[C@H](C)OC2=O)c1O [Compound F60]	80 to 100	80 to 100	80 to 100		93 to 97 °C	80 to 100	80 to 100	80 to 100	
C[C@@H]1OC(=O)[C@@H](N)CCC[C@H](Cc2ccc(F)cc2F)[C@H]1OCc1ccccc1.Cl					233 to 237 °C				
Cc1ccc(C[C@H]2CCC[C@H](NC(=O)OC(C)(C)C)C(=O)O[C@@H](C)[C@@H]2OCC2CC2)cc1 [Compound F236]					86 to 89 °C				
COCN(C(=O)OC(C)(C)C)[C@H]1CCC[C@H](Cc2ccc(F)cc2F)[C@@H](OCc2ccccc2)[C@H](C)OC1=O [Compound F254]					108 to 115 °C				
CCCO[C@@H]1[C@@H](Cc2ccc(F)cc2)CCC[C@H](N)C(=O)O[C@H]1C.Cl					215 to 217 °C				
COc1ccnc(C(=O)N[C@H]2CCC[C@H](Cc3ccc(C)cc3)[C@@H](Oc3ccccc3)[C@H](C)OC2=O)c1O [Compound F49, 3-hydroxy-4-methoxy-N-((3S,7R,8R,9S)-9-methyl-7-(4-methylbenzyl)-2-oxo-8-phenoxyoxonan-3-yl)picolinamide]	80 to 100		80 to 100		62 to 66 °C	80 to 100		0 to 80	
Cc1ccc(C[C@H]2CCC[C@H](N)C(=O)O[C@@H](C)[C@@H]2Oc2ccccc2)cc1.Cl					200 to 210 °C (dec.)				
C[C@@H]1OC(=O)[C@@H](N)CCC[C@H](Cc2ccc(F)cc2F)[C@H]1OCCCc1ccccc1.Cl					190 to 195 °C (dec.)				

Reference: US9265253B2, “Use of macrocyclic picolinamides as fungicides” (DOW AGROSCIENCES LLC, priority 2013, dated 2016)
